Assay results published in patent US8268366B2, “Cosmetic composition containing salt-fermented extract of natural materials” (Amorepacific Corporation, priority 2008, dated 2012).

Assays:
collagenase = test: Measurement of collagenase expression inhibitory activity in human fibroblasts; assay type: cell-based; details: human fibroblasts treated at 10^−4 mole for 24 hours; untreated control group set as 100
Method: The collagenase expression inhibitory activity of the extracts of natural materials, prepared in Comparative Examples 1 and 2, and the salt-fermented extracts of natural materials, prepared in Examples 1 to 7, were measured comparatively with those of tocopherol and EGCG. […] Tocopherol and EGCG, which are antioxidant substances, are known to prevent skin aging by regenerating the epidermal cells of the skin.
In the test, human fibroblasts were seeded into a 96-well microtiter plate containing DMEM (Dulbecco's Modified Eagle's Media) medium containing 2.5% fetal bovine serum to a density of 5,000 cells/well and were cultured to a confluence of about 90%. […]
The collected cell culture broths were measured for collagenase production using a commercially available collagenase measurement device (Amersham Phamasia, USA). […]
The absorbance of the 96-well plate having a yellow color was measured at 405 nm using an absorbance spectrometer, and the degree of synthesis of collagenase was calculated according to the following Equation 1. Herein, the absorbance of the cell culture broth collected from the group not treated with the composition was used as a control. That is, the expression of collagenase in the control group was set as 100, and the expression of collagenase in the group treated with the composition was calculated relative to the control group.

procollagen = test: Test of the effect of promoting procollagen production in human fibroblasts; assay type: cell-based; details: human fibroblasts treated at 10^−4 mole for 24 hours; procollagen type-1 C-peptide EIA; untreated control group set as 100
Method: Procollagen is a collagen production-inducing substance necessary for collagen production and aging prevention, and if the degree of production of procollagen is high, the degree of production of collagen is also high, and thus the production of skin wrinkles can be prevented. Also, vitamin C is known as a component essential for the synthesis of collagen. […] The cell culture broths were then collected. After 24 hours, the amount of released procollagen in the medium was measured with a procollagen type-1 C-peptide EIA kit (MK101, Takara, Japan). Based on the measurement results, the production of procollagen was calculated according to the following Equation 2. Herein, the production of procollagen collected from the group not treated with the composition was used as a control group. […] [formula]

Compound: O=C(O[C@@H]1Cc2c(O)cc(O)cc2O[C@@H]1c1cc(O)c(O)c(O)c1)c1cc(O)c(O)c(O)c1 [EGCG]
- Collagenase expression (%) (collagenase): 60%

Compound: O=C1O[C@H]([C@@H](O)CO)C(O)=C1O [Vitamin C, vitamin C]
- Procollagen production (%) (procollagen): 120%

Compound: tocopherol
- Collagenase expression (%) (collagenase): 75%
